The values below come from ChEMBL document CHEMBL4390709, “Design, synthesis and biological evaluation of benzimidazole derivatives as novel human Pin1 inhibitors” (Bioorg Med Chem Lett, 2019).

Test [1] concerns the target Peptidyl-prolyl cis-trans isomerase NIMA-interacting 1 (Homo sapiens, UniProt Q13526). Nature of the test: Inhibition of recombinant human Pin1 (Met1 to Glu163 residues) expressed in Escherichia coli using Suc-Ala-Glu-cis-Pro-Phe-4-nitroanilide as substrate preincubated for 30 mins followed by substrate addition and measured for 90 secs by protease-coupled assay.
Test [2] concerns PC-3. Nature of the test: Cell cycle arrest in human PC3 cells assessed as accumulation at G2/M-phase at 10 uM measured after 24 hrs by propidium iodide staining based flow cytometry (reference value: 28.31%). The test is classed as functional. Background: In flow cytometry, cells or beads pass a laser one at a time.
The subject of test [3] is PC-3. Nature of the test: Cell cycle arrest in human PC3 cells assessed as accumulation at G0/G1-phase at 5 uM measured after 24 hrs by propidium iodide staining based flow cytometry (reference value: 54.26%). The test is classed as functional.
Test [4] relates to PC-3. Nature of the test: Cell cycle arrest in human PC3 cells assessed as accumulation at subG1-phase at 2.5 uM measured after 24 hrs by propidium iodide staining based flow cytometry (reference value: 0.65%). The test is classed as functional.
Test [5] has as its system PC-3. Nature of the test: Cell cycle arrest in human PC3 cells assessed as accumulation at G2/M-phase at 2.5 uM measured after 24 hrs by propidium iodide staining based flow cytometry (reference value: 28.31%). The test is classed as functional.
For test [6], the system named is PC-3. In words: Cell cycle arrest in human PC3 cells assessed as accumulation at G0/G1-phase at 10 uM measured after 24 hrs by propidium iodide staining based flow cytometry (reference value: 54.26%). The test is classed as functional.
The subject of test [7] is PC-3. Nature of the test: Cell cycle arrest in human PC3 cells assessed as accumulation at subG1-phase at 5 uM measured after 24 hrs by propidium iodide staining based flow cytometry (reference value: 0.65%). The test is classed as functional.
Test [8] relates to PC-3. Nature of the test: Cell cycle arrest in human PC3 cells assessed as accumulation at G2/M-phase at 5 uM measured after 24 hrs by propidium iodide staining based flow cytometry (reference value: 28.31%). The test is classed as functional.
Test [9] deals with PC-3. In words: Antiproliferative activity against human PC3 cells measured after 96 hrs by MTT assay. The test is classed as functional. The note with it: PC-3, 96 h. Background: Formazan colour is commonly taken as a measure of viable cells.
Test [10] relates to PC-3. Nature of the test: Cell cycle arrest in human PC3 cells assessed as increase in accumulation at G0/G1-phase measured after 24 hrs by propidium iodide staining based flow cytometry. The test is classed as functional.
The subject of test [11] is PC-3. Nature of the test: Cell cycle arrest in human PC3 cells assessed as accumulation at G0/G1-phase at 2.5 uM measured after 24 hrs by propidium iodide staining based flow cytometry (reference value: 54.26%). The test is classed as functional.
Test [12] has as its system PC-3. Nature of the test: Cell cycle arrest in human PC3 cells assessed as accumulation at subG1-phase at 10 uM measured after 24 hrs by propidium iodide staining based flow cytometry (reference value: 0.65%). The test is classed as functional.

Sequence of Peptidyl-prolyl cis-trans isomerase NIMA-interacting 1 (Q13526 whole entry): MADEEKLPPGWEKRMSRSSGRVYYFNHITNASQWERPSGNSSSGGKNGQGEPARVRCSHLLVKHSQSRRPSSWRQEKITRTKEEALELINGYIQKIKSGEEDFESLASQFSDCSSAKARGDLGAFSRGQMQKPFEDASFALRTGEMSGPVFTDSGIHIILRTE

One may read the IC50 as the concentration that inhibits the measured activity by half. Consider `O=C(O)c1ccc(-c2nc3ccccc3n2CCCOc2ccc(Oc3ccccc3)cc2)cc1`, for which, in test [1], the IC50 worked out at 2.2 µM. Regarding `O=C(CCn1c(-c2ccc(C(=O)O)cc2)nc2ccccc21)Oc1cccc2ccccc12`, the half-maximal inhibitory concentration (IC50) in [1] came to 1.87 µM. Still for that read-out and setting: under `O=C(CCn1c(-c2ccc(C(=O)O)cc2)nc2ccccc21)Nc1cccc(C(F)(F)F)c1` stands 11.3 µM; under `COc1cccc(NC(=O)CCn2c(-c3ccc(C(=O)O)cc3)nc3ccccc32)c1`, 18.7 µM; under `Cc1cccc(NC(=O)CCn2c(CCC(=O)O)nc3ccccc32)c1`, 7.56 µM. Still for that read-out and setting: the value for `O=C(NS(=O)(=O)C(F)(F)F)c1ccc(-c2nc3ccccc3n2CCCOc2cccc3ccccc23)cc1` was 2.26 µM. `O=C(O)c1ccc(-c2nc3ccccc3n2CCC(=O)N(Cc2ccccc2)Cc2ccccc2)cc1`: the concentration for half-maximal inhibition (IC50) in test [1] came out at 5.4 µM.

In the case of `O=C(O)c1ccc(-c2nc3ccccc3n2CCC(=O)N(c2ccccc2)c2ccc3ccccc3c2)cc1`, the IC50 in [1] is 1.53 µM. As to `Cc1ccccc1NC(=O)CCn1c(CCC(=O)O)nc2ccccc21`, the concentration for half-maximal inhibition (IC50) in test [1] was 9.81 µM.

In the case of `O=C(O)c1ccc(-c2nc3ccccc3n2CCCOc2cccc3ccccc23)cc1`, the concentration for half-maximal inhibition (IC50) in test [1] is 0.33 µM. As a reminder, the GI50 is the concentration that inhibits growth by half. Read a low GI50 as more potent growth inhibition. Turning to `O=C(NS(=O)(=O)c1ccccc1)c1ccc(-c2nc3ccccc3n2CCCOc2cccc3ccccc23)cc1`, the Activity was determined as 27.2% in test [2]; 62.46% in [3]; 0.52% in [4]; 29.01% in test [5]; 64.24% in test [6]; 0.49% in test [7]. Moreover, the Activity in test [8] is 27.86%; in [10], “Dose-dependent effect”; in test [11], 58.33%; in [12] it was 0.37%. The molecule further returned a GI50 in [9] of 9 µM. For the same molecule, in [1], the IC50 was 1 µM. Regarding `CS(=O)(=O)NC(=O)c1ccc(-c2nc3ccccc3n2CCCOc2cccc3ccccc23)cc1`, the IC50 in test [1] worked out at 7.83 µM.

`Cc1ccccc1NC(=O)CCn1c(-c2ccc(C(=O)O)cc2)nc2ccccc21`: the IC50 in [1] was 7.27 µM.

Consider `Cc1cccc(NC(=O)CCn2c(-c3ccc(C(=O)O)cc3)nc3ccccc32)c1`, for which, in test [1], the IC50 was 1.1 µM. Turning to `CC(C)(C)c1ccc(OC(=O)CCn2c(-c3ccc(C(=O)O)cc3)nc3ccccc32)cc1`, the half-inhibitory concentration (IC50) in test [1] came out at 13.9 µM. In the case of `Cc1cc(OC(=O)CCn2c(-c3ccc(C(=O)O)cc3)nc3ccccc32)cc(C)c1Cl`, in test [1], the 50% inhibitory concentration (IC50) came to 0.72 µM. `COc1cc(NC(=O)CCn2c(-c3ccc(C(=O)O)cc3)nc3ccccc32)cc(OC)c1`: the IC50 in [1] was found to be 3.57 µM. For the molecule `O=C(CCn1c(-c2ccc(C(=O)O)cc2)nc2ccccc21)Nc1cc(Cl)cc(Cl)c1`, the IC50 in [1] amounted to 2.89 µM. `Cc1cc(OCCCn2c(-c3ccc(C(=O)O)cc3)nc3ccccc32)cc(C)c1Cl`: the 50% inhibitory concentration (IC50) in [1] turned out to be 0.47 µM. On to `O=C(CCn1c(-c2ccc(C(=O)O)cc2)nc2ccccc21)Oc1ccc(Oc2ccccc2)cc1`, for which the 50% inhibitory concentration (IC50) in [1] is 1.02 µM. Turning to `CC(C)(C)c1ccc(OCCCn2c(-c3ccc(C(=O)O)cc3)nc3ccccc32)cc1`, in test [1], the half-maximal inhibitory concentration (IC50) was 1.89 µM. Consider `O=C(O)CCc1nc2ccccc2n1CCC(=O)Nc1ccccc1`, for which, in [1], the concentration for half-maximal inhibition (IC50) worked out at 19.7 µM. With `O=C(CCn1c(-c2ccc(C(=O)O)cc2)nc2ccccc21)Nc1cccc([N+](=O)[O-])c1`, the IC50 in test [1] amounted to 13.6 µM.
